In one assay the target is T1, Human PD-L1/PD-1 (Homo sapiens, UniProt Q9NZQ7).
T1 construct: made in house; host or cells: HEK293T
Briefly: HTRF PD-1-Ig/PD-L1-His binding assay (human PD-L1). To be noted: cluster symbol; read-out: HTRF IC50 cluster. In outline:
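HTRF read-out: Eu cryptate anti-Ig mAb 1 nM final, APC anti-His mAb 20 nM final, added over the binding reaction. Proteins were PD-1-Ig and PD-L1-His ectodomain fusions. Buffer was dPBS, 0.1% BSA, 0.05% Tween-20.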

In assay [1] the target is T2, LK35.2-hPD-L1 cells / PE-labeled PD-1-Ig (Homo sapiens, UniProt Q9NZQ7).
T2 construct: expressed in transfected cells; host or cells: LK35.2 mouse B cell line
Briefly: LK35.2-hPD-L1 cell binding high-content screening assay. It is filed as cell-based. To be noted: cell binding assay, cell line not given; cluster symbol; read-out: CBA IC50 cluster. The method, boiled down: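 Fluorescent PD-1-Ig binding to PD-L1-expressing LK35.2 cells, imaged after washing. Conditions: 1 nM PE-PD-1-Ig, 37 °C, 1 h, RPMI with 10% fetal calf serum.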

Consider 14 compounds from US9850283B2, “Macrocyclic inhibitors of the PD-1/PD-L1 and CD80(B7-1)/PD-L1 protein/protein interactions” (BRISTOL-MYERS SQUIBB COMPANY, priority 2013, dated 2017).

The term IC50 denotes the concentration that inhibits the measured activity by half.

Positions of bridges follow the written chain, without caps; N, C: chain ends. Non-standard residues stand in square brackets, D forms with d. Residues, ends and D or L forms follow the SMILES beside them. Bta = N[C@@H](Cc1csc2ccccc12)C(=O)O; Hyp = O=C(O)[C@@H]1C[C@@H](O)CN1; NMeNle = CCCC[C@H](NC)C(=O)O; NMeA = CN[C@@H](C)C(=O)O; Dab = NCC[C@H](N)C(=O)O; Dap = NC[C@H](N)C(=O)O

T1 sequence (Q9NZQ7 with tags, fused parts or gaps): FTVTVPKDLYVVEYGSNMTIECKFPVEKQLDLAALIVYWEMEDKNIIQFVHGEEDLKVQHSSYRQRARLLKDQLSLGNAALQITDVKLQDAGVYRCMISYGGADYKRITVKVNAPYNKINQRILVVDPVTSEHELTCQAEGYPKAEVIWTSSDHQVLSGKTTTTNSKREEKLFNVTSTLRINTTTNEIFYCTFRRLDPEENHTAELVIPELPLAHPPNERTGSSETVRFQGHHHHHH
T2 sequence (Q9NZQ7 19-290): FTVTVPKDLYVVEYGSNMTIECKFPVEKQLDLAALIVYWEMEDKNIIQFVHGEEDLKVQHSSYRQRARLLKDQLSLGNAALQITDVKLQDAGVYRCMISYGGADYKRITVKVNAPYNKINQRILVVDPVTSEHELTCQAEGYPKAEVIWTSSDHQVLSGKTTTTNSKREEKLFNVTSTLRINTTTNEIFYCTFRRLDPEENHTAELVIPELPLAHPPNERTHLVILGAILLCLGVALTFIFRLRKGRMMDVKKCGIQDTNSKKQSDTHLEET

Regarding `CCCC[C@H]1C(=O)N(C)[C@@H](CCCC)C(=O)N[C@@H](CCN)C(=O)N[C@H](C(=O)NCC(N)=O)CSCC(=O)N[C@@H](Cc2ccc(O)cc2)C(=O)N(C)[C@@H](C)C(=O)N[C@@H](CC(N)=O)C(=O)N2CCC[C@H]2C(=O)N[C@@H](CN)C(=O)N[C@@H](CCC(N)=O)C(=O)N2C[C@H](O)C[C@H]2C(=O)N[C@@H](Cc2c[nH]c3ccccc23)C(=O)N[C@@H](CO)C(=O)N[C@@H](Cc2c[nH]c3ccccc23)C(=O)N1C` [Example 5042] ({CH2CO}-Y[NMeA]NP[Dap]Q[Hyp]WSW[NMeNle][NMeNle][Dab]CG-NH2; thioether N-14), the figures for the IC50 (at Human PD-L1/PD-1; in assay [1]) were 0.385 to 6.74 nM and 0.158 to 4.71 nM, respectively.

Turning to `CCCC[C@H]1C(=O)N(C)[C@@H](CCCC)C(=O)N[C@@H](CCN)C(=O)N[C@H](C(=O)NCC(N)=O)CSCC(=O)N[C@@H](Cc2ccc(O)cc2)C(=O)N(C)[C@@H](C)C(=O)N[C@@H](CC(N)=O)C(=O)N2CCC[C@H]2C(=O)N[C@@H](Cc2cnc[nH]2)C(=O)N[C@@H](CCC(N)=O)C(=O)N2C[C@H](O)C[C@H]2C(=O)N[C@@H](Cc2c[nH]c3ccccc23)C(=O)N[C@@H](CCN)C(=O)N[C@@H](Cc2c[nH]c3ccccc23)C(=O)N1C` [Example 5043] ({CH2CO}-Y[NMeA]NPHQ[Hyp]W[Dab]W[NMeNle][NMeNle][Dab]CG-NH2; thioether N-14), the IC50 at Human PD-L1/PD-1 lay in the range of 6.76 to 30.3 nM; in assay [1] it was 0.158 to 4.71 nM.

As for `CCCC[C@H]1C(=O)N(C)[C@@H](CCCC)C(=O)N[C@@H](CCN)C(=O)N[C@H](C(=O)NCC(N)=O)CSCC(=O)N[C@@H](Cc2ccc(O)cc2)C(=O)N(C)[C@@H](C)C(=O)N[C@@H](CC(N)=O)C(=O)N2CCC[C@H]2C(=O)N[C@@H](CN)C(=O)N[C@@H](CCC(N)=O)C(=O)N2C[C@H](O)C[C@H]2C(=O)N[C@@H](Cc2c[nH]c3ccccc23)C(=O)N[C@@H](CCN)C(=O)N[C@@H](Cc2c[nH]c3ccccc23)C(=O)N1C` [Example 5044] ({CH2CO}-Y[NMeA]NP[Dap]Q[Hyp]W[Dab]W[NMeNle][NMeNle][Dab]CG-NH2; thioether N-14), the values for the IC50 (on Human PD-L1/PD-1; in assay [1]) were 0.385 to 6.74 nM and 0.158 to 4.71 nM, respectively.

Consider `CCCC[C@H]1C(=O)N(C)[C@@H](CCCC)C(=O)N[C@@H](CCN)C(=O)N[C@H](C(=O)NCC(N)=O)CSCC(=O)N[C@@H](Cc2ccc(O)cc2)C(=O)N(C)[C@@H](C)C(=O)N[C@@H](CC(=O)O)C(=O)N2CCC[C@H]2C(=O)N[C@@H](Cc2cnc[nH]2)C(=O)N[C@@H](CCC(N)=O)C(=O)N2C[C@H](O)C[C@H]2C(=O)N[C@@H](Cc2c[nH]c3ccccc23)C(=O)N[C@@H](CO)C(=O)N[C@@H](Cc2c[nH]c3ccccc23)C(=O)N1C` [Example 5045] ({CH2CO}-Y[NMeA]DPHQ[Hyp]WSW[NMeNle][NMeNle][Dab]CG-NH2; thioether N-14), for which the IC50 was in the range of 0.385 to 6.74 nM on Human PD-L1/PD-1 and 0.158 to 4.71 nM in assay [1].

For the compound `CCCC[C@H]1C(=O)N(C)[C@@H](CCCC)C(=O)N[C@@H](CCN)C(=O)N[C@H](C(=O)NCC(N)=O)CSCC(=O)N[C@@H](Cc2ccc(O)cc2)C(=O)N(C)[C@@H](C)C(=O)N[C@@H](CC(=O)O)C(=O)N2CCC[C@H]2C(=O)N[C@@H](Cc2cnc[nH]2)C(=O)N[C@@H](CCC(N)=O)C(=O)N2C[C@H](O)C[C@H]2C(=O)N[C@@H](Cc2c[nH]c3ccccc23)C(=O)N[C@@H](CCN)C(=O)N[C@@H](Cc2c[nH]c3ccccc23)C(=O)N1C` [Example 5046] ({CH2CO}-Y[NMeA]DPHQ[Hyp]W[Dab]W[NMeNle][NMeNle][Dab]CG-NH2; thioether N-14), the IC50 on Human PD-L1/PD-1 was 0.385 to 6.74 nM; in assay [1], above 74.3 nM.

As to `CCCC[C@H]1C(=O)N(C)[C@@H](CCCC)C(=O)N[C@@H](C)C(=O)N[C@H](C(=O)NCC(N)=O)CSCC(=O)N[C@@H](Cc2ccc(O)cc2)C(=O)N(C)[C@@H](C)C(=O)N[C@@H](CC(N)=O)C(=O)N2CCC[C@H]2C(=O)N[C@@H](Cc2cnc[nH]2)C(=O)N[C@@H](CCC(N)=O)C(=O)N2C[C@H](O)C[C@H]2C(=O)N[C@@H](Cc2c[nH]c3ccccc23)C(=O)N[C@@H](CO)C(=O)N[C@@H](Cc2c[nH]c3ccccc23)C(=O)N1C` [Example 5047], the IC50 on Human PD-L1/PD-1 lay in the range of 6.76 to 30.3 nM; in assay [1], 4.78 to 72.9 nM.

With `CCCC[C@H]1C(=O)N(C)[C@@H](CCCC)C(=O)N[C@@H](CC(C)C)C(=O)N[C@H](C(=O)NCC(N)=O)CSCC(=O)N[C@@H](Cc2ccc(O)cc2)C(=O)N(C)[C@@H](C)C(=O)N[C@@H](CC(N)=O)C(=O)N2CCC[C@H]2C(=O)N[C@@H](Cc2cnc[nH]2)C(=O)N[C@@H](CCC(=O)O)C(=O)N2C[C@H](O)C[C@H]2C(=O)N[C@@H](Cc2csc3ccccc23)C(=O)N[C@@H](CCN)C(=O)N[C@@H](Cc2c[nH]c3ccccc23)C(=O)N1C` [Example 5051] ({CH2CO}-Y[NMeA]NPHE[Hyp][Bta][Dab]W[NMeNle][NMeNle]LCG-NH2; thioether N-14), the IC50 on Human PD-L1/PD-1 was above 30.5 nM; in assay [1] it was above 74.3 nM.

Consider `CCCC[C@H]1C(=O)N(C)[C@@H](CCCC)C(=O)N[C@@H](CCCNC(=N)N)C(=O)N[C@H](C(=O)NCC(N)=O)CSCC(=O)N[C@@H](Cc2ccc(O)cc2)C(=O)N(C)[C@@H](C)C(=O)N[C@@H](CC(N)=O)C(=O)N2CCC[C@H]2C(=O)N[C@@H](Cc2cnc[nH]2)C(=O)N[C@@H](CCC(=O)O)C(=O)N2C[C@H](O)C[C@H]2C(=O)N[C@@H](Cc2csc3ccccc23)C(=O)N[C@@H](CCN)C(=O)N[C@@H](Cc2c[nH]c3ccccc23)C(=O)N1C` [Example 5052] ({CH2CO}-Y[NMeA]NPHE[Hyp][Bta][Dab]W[NMeNle][NMeNle]RCG-NH2; thioether N-14), for which the results for the IC50 (on Human PD-L1/PD-1; in assay [1]) were above 30.5 nM and above 74.3 nM, respectively.

For the compound `CCCC[C@H]1C(=O)N(C)[C@@H](CCCC)C(=O)N[C@@H](CCN)C(=O)N[C@H](C(=O)NCC(N)=O)CSCC(=O)N[C@@H](Cc2ccc(O)cc2)C(=O)N(C)[C@@H](C)C(=O)N[C@@H](CC(N)=O)C(=O)N2CCC[C@H]2C(=O)N[C@@H](Cc2cnc[nH]2)C(=O)N[C@@H](CCC(=O)O)C(=O)N2C[C@H](O)C[C@H]2C(=O)N[C@@H](Cc2csc3ccccc23)C(=O)N[C@@H](C)C(=O)N[C@@H](Cc2c[nH]c3ccccc23)C(=O)N1C` [Example 5053] ({CH2CO}-Y[NMeA]NPHE[Hyp][Bta]AW[NMeNle][NMeNle][Dab]CG-NH2; thioether N-14), the IC50 is above 30.5 nM at Human PD-L1/PD-1 and above 74.3 nM in assay [1].

For `CCCC[C@H]1C(=O)N(C)[C@@H](CCCC)C(=O)N[C@@H](CCN)C(=O)N[C@H](C(=O)NCC(N)=O)CSCC(=O)N[C@@H](Cc2ccc(O)cc2)C(=O)N(C)[C@@H](C)C(=O)N[C@@H](CC(N)=O)C(=O)N2CCC[C@H]2C(=O)N[C@@H](Cc2cnc[nH]2)C(=O)N[C@@H](CCC(=O)O)C(=O)N2C[C@H](O)C[C@H]2C(=O)N[C@@H](Cc2csc3ccccc23)C(=O)N[C@@H](CO)C(=O)N[C@@H](Cc2c[nH]c3ccccc23)C(=O)N1C` [Example 5054] ({CH2CO}-Y[NMeA]NPHE[Hyp][Bta]SW[NMeNle][NMeNle][Dab]CG-NH2; thioether N-14), the IC50 on Human PD-L1/PD-1 was above 30.5 nM; in assay [1], above 74.3 nM.

With `CCCC[C@H]1C(=O)N(C)[C@@H](CCCC)C(=O)N[C@@H](CCN)C(=O)N[C@H](C(=O)NCC(N)=O)CSCC(=O)N[C@@H](Cc2ccc(O)cc2)C(=O)N(C)[C@@H](C)C(=O)N[C@@H](CC(N)=O)C(=O)N2CCC[C@H]2C(=O)N[C@@H](Cc2cnc[nH]2)C(=O)N[C@@H](CCC(=O)O)C(=O)N2C[C@H](O)C[C@H]2C(=O)N[C@@H](Cc2csc3ccccc23)C(=O)N[C@@H](CCN)C(=O)N[C@@H](Cc2c[nH]c3ccccc23)C(=O)N1C` [Example 5055] ({CH2CO}-Y[NMeA]NPHE[Hyp][Bta][Dab]W[NMeNle][NMeNle][Dab]CG-NH2; thioether N-14), the IC50 is above 30.5 nM on Human PD-L1/PD-1 and above 74.3 nM in assay [1].

Regarding `CCCC[C@H]1C(=O)N(C)[C@@H](CCCC)C(=O)N[C@@H](CCN)C(=O)N[C@H](C(=O)NCC(N)=O)CSCC(=O)N[C@@H](Cc2ccc(O)cc2)C(=O)N(C)[C@@H](C)C(=O)N[C@@H](CC(N)=O)C(=O)N2CCC[C@H]2C(=O)N[C@@H](Cc2cnc[nH]2)C(=O)N[C@@H](CCC(N)=O)C(=O)N2C[C@H](O)C[C@H]2C(=O)N[C@@H](Cc2csc3ccccc23)C(=O)N[C@@H](CCN)C(=O)N[C@@H](Cc2c[nH]c3ccccc23)C(=O)N1C` [Example 5056] ({CH2CO}-Y[NMeA]NPHQ[Hyp][Bta][Dab]W[NMeNle][NMeNle][Dab]CG-NH2; thioether N-14), the IC50 on Human PD-L1/PD-1 was above 30.5 nM; in assay [1], above 74.3 nM.

Turning to `CCCC[C@H]1C(=O)N(C)[C@@H](CCCC)C(=O)N[C@@H](CCCNC(=N)N)C(=O)N[C@H](C(=O)NCC(N)=O)CSCC(=O)N[C@@H](Cc2ccc(O)cc2)C(=O)N(C)[C@@H](C)C(=O)N[C@@H](CC(N)=O)C(=O)N2CCC[C@H]2C(=O)N[C@@H](CN)C(=O)N[C@@H](CC(C)C)C(=O)N2C[C@H](O)C[C@H]2C(=O)N[C@@H](Cc2c[nH]c3ccccc23)C(=O)N[C@@H](CC(=O)O)C(=O)N[C@@H](Cc2c[nH]c3ccccc23)C(=O)N1C` [Example 5057] ({CH2CO}-Y[NMeA]NP[Dap]L[Hyp]WDW[NMeNle][NMeNle]RCG-NH2; thioether N-14), the IC50 is 6.76 to 30.3 nM on Human PD-L1/PD-1 and 4.78 to 72.9 nM in assay [1].

With `CCCC[C@H]1C(=O)N(C)[C@@H](CCCC)C(=O)N[C@@H](CCCNC(=N)N)C(=O)N[C@H](C(=O)NCC(N)=O)CSCC(=O)N[C@@H](Cc2ccc(O)cc2)C(=O)N(C)[C@@H](C)C(=O)N[C@@H](CC(N)=O)C(=O)N2CCC[C@H]2C(=O)N[C@@H](CN)C(=O)N[C@@H](CC(C)C)C(=O)N2C[C@H](O)C[C@H]2C(=O)N[C@@H](Cc2c[nH]c3ccccc23)C(=O)N[C@@H](CCC(=O)O)C(=O)N[C@@H](Cc2c[nH]c3ccccc23)C(=O)N1C` [Example 5058] ({CH2CO}-Y[NMeA]NP[Dap]L[Hyp]WEW[NMeNle][NMeNle]RCG-NH2; thioether N-14), the IC50 is 0.385 to 6.74 nM on Human PD-L1/PD-1 and 4.78 to 72.9 nM in assay [1].
